Results: ChEMBL document CHEMBL1122779, “Antiinflammatory agents. 3. Synthesis and pharmacological evaluation of 2-amino-3-benzoylphenylacetic acid and analogues” (J Med Chem, 1984)

Experiments:
[1] = system: Rattus norvegicus; experiment: Percent change in average volume of pleural fluid at a dose of 4.0 mg/kg and 5-h response by Evans blue-carrageenan induced pleural effusion assay.; assay type: functional
[2] = biological target: T1, Cyclooxygenase (Bos taurus, UniProt O62664+O62698)
T1 sequence (O62664 whole entry): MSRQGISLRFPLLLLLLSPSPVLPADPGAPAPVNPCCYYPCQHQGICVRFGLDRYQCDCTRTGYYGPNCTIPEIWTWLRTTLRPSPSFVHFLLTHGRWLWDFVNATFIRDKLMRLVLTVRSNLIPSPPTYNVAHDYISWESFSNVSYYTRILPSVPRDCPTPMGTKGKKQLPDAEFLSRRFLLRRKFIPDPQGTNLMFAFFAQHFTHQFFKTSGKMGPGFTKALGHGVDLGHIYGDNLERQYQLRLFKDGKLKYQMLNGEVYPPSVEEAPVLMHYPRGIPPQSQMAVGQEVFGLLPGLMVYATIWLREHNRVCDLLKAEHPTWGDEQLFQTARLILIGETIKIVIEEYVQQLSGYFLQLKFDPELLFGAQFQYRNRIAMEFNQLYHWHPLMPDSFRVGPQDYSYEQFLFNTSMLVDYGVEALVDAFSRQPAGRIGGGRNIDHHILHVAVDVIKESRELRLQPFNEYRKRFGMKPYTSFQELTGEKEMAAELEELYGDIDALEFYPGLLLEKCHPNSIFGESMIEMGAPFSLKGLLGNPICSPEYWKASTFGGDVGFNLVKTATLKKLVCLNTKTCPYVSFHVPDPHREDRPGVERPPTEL
T1 sequence (O62698 whole entry): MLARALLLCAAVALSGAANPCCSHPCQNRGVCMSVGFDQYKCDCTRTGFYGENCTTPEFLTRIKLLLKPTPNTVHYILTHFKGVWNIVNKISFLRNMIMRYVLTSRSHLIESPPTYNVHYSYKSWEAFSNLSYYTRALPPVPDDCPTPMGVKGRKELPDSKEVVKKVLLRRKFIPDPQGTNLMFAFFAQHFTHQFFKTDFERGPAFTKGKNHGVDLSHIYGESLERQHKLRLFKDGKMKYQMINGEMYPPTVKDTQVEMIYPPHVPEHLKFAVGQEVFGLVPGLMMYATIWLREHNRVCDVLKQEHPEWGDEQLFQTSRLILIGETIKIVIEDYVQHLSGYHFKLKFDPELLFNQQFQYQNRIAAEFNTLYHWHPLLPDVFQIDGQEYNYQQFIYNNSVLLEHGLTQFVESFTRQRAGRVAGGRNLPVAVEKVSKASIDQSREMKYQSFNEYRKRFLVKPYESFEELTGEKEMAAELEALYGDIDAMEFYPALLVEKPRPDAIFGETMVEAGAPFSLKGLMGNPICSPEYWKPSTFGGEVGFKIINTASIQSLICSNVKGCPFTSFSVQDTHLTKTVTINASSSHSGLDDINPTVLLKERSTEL
Description: Inhibition of prostaglandin G/H synthase obtained from bovine seminal vesicles.

[3] = system: Rattus norvegicus; experiment: Percent change in average volume of pleural fluid at a dose of 100 mg/kg and 5-h response by Evans blue-carrageenan induced pleural effusion assay.; assay type: functional
[4] = system: Rattus norvegicus; experiment: Percent change in average volume of pleural fluid at a dose 4 mg/kg of indomethacin and 5-h response is evaluated by Evans blue-carrageenan induced pleural effusion assay; assay type: functional
[5] = system: Mus musculus; experiment: Oral analgesic activity was determined in mice by the acetylcholine-induced abdominal constriction assay upon ip administration of acetylcholine bromide 20 min following oral administration; assay type: functional; conditions: Abdomen
[6] = species on record: Rattus norvegicus; experiment: Evaluated for chronic potency in adjuvant arthritis assay; assay type: functional
[7] = system: Mus musculus; experiment: Oral analgesic activity was determined in mice by the acetylcholine-induced abdominal constriction assay upon ip administration of acetylcholine bromide 5 hours following oral administration; assay type: functional; conditions: Abdomen
[8] = species on record: Rattus norvegicus; experiment: Evaluated for acute potency in pleural effusion assay; assay type: functional
[9] = system: Rattus norvegicus; experiment: Evaluated for chronic intestinal toxicity (multiple oral dose) in rats; assay type: organism-based; conditions: in vivo
[10] = system: Rattus norvegicus; experiment: Acute gastric toxicity (single oral dose) in male fasted rats; assay type: organism-based, Stomach; conditions: in vivo

| IC50 [2] | SMILES | Change [1] | Change [3] | Change [4] | ED50 [5] | Potency [6] | ED50 [7] | Potency [8] | Intestinal toxicity [9] | Gastric toxicity [10] |
| --- | --- | --- | --- | --- | --- | --- | --- | --- | --- | --- |
| 30 µM | Cc1ccc(C(=O)c2cc(C)cc(CC(=O)[O-])c2N)cc1.[Na+] | -12% | -33% | -42% |  |  |  |  |  |  |
| 0.1 µM | CSc1ccc(C(=O)c2cccc(CC(=O)[O-])c2N)cc1.[Na+] | -21% |  | -30% |  |  |  |  |  |  |
| 0.2 µM | Nc1c(CC(=O)[O-])cc(F)cc1C(=O)c1ccccc1.[Na+] | -9% | -33% | -20% |  |  |  |  |  |  |
| 0.3 µM | Cc1ccc(C(=O)c2cccc(CC(=O)[O-])c2N)cc1.[Na+] | -17% |  | -39% |  |  |  |  |  |  |
| 68 µM | COc1ccc(C(=O)c2cccc(CC(=O)[O-])c2N)cc1.[Na+] | -10% |  | -35% |  |  |  |  |  |  |
| 1 µM | Nc1c(CC(=O)[O-])cccc1C(=O)c1ccc(C(F)(F)F)cc1.[Na+] | -38% | -24% |  |  |  |  |  |  |  |
| 50 µM | Nc1c(CC(=O)[O-])cccc1C(=O)c1ccc(Cl)c(Cl)c1.[Na+] | -10% |  | -30% |  |  |  |  |  |  |
| 1 µM | Nc1c(CC(=O)[O-])cc(Cl)cc1C(=O)c1ccccc1.[Na+] | -17% |  | -35% |  |  |  |  |  |  |
| > 1000 µM | Nc1c(CC(=O)[O-])cccc1C(=O)c1cccc(Cl)c1.[Na+] | -15% | -35% | -33% |  |  |  |  |  |  |
| 0.4 µM | CSc1ccc(C(=O)c2cc(C)cc(CC(=O)[O-])c2N)cc1.[Na+] | -26% | -47% | -42% |  |  |  |  |  |  |
| 0.9 µM | Nc1c(CC(=O)[O-])cccc1C(=O)c1ccc(F)cc1.[Na+] | 0% | -36% | -35% |  |  |  |  |  |  |
| 0.3 µM | Nc1c(CC(=O)[O-])cccc1C(=O)c1ccccc1Cl.[Na+] | -22% | -42% | -33% |  |  |  |  |  |  |

| SMILES | IC50 [2] | Change [1] | Change [3] | Change [4] | ED50 [5] | Potency [6] | ED50 [7] | Potency [8] | Intestinal toxicity [9] | Gastric toxicity [10] |
| --- | --- | --- | --- | --- | --- | --- | --- | --- | --- | --- |
| CSc1ccc(C(=O)c2cc(F)cc(CC(=O)[O-])c2N)cc1.[Na+] | 0.008 µM | -28% |  | -33% | 0.1 mg/kg | 0.03 | > 1 mg/kg | 0.4 |  |  |
| Nc1c(CC(=O)[O-])cccc1C(=O)c1ccc(Br)cc1Cl.[Na+] | 0.05 µM | -26% | -37% | -32% | 0.12 mg/kg | 7.4 | 1.6 mg/kg | 1.6 | 1.6 | 5.6 |
| Nc1c(CC(=O)[O-])cc(Cl)cc1C(=O)c1ccc(Br)cc1Cl.[Na+] | 0.05 µM | -25% | -37% | -36% | 0.66 mg/kg | 2.5 | 0.19 mg/kg | 4.9 | 3.3 | 1.2 |
| Nc1c(CC(=O)[O-])cccc1C(=O)c1ccc(-c2ccccc2)cc1.[Na+] | 0.08 µM | -15% | -14% | -36% |  |  |  |  |  |  |
| Cc1cc(CC(=O)[O-])c(N)c(C(=O)c2ccc(Br)cc2)c1.[Na+] | 0.7 µM | -31% | -39% | -36% | 0.72 mg/kg | 1 | 0.7 mg/kg | 2.8 | 1.1 | 1.2 |
